# Laboratory results as given in paper PMC5775816 (Journal of medicinal chemistry, 2016).
# “Also recorded” adds a separate entry of the source.
# Assays:
# PAR4 [1] = biological target: T1, PAR4 (Homo sapiens, UniProt Q96RI0); assay: PAC-1 binding assay; assay type: cell-based; conditions: for PAR4 activity (in words): PAR4-AP, PAC-1
# T1 sequence (Q96RI0 18-385): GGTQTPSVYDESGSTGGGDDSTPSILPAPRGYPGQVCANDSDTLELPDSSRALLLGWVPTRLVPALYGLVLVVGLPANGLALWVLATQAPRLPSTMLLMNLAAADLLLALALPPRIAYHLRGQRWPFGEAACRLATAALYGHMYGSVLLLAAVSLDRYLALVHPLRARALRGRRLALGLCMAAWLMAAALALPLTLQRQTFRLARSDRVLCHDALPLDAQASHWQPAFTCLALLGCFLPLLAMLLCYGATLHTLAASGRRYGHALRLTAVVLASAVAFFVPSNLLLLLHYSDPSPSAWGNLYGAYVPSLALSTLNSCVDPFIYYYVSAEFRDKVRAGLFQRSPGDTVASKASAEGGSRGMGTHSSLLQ
# [2] = Predicted hepatic clearance in rat microsomes; assay type: in vitro ADME
# PAR4 [3] = biological target: T1, PAR4; assay: Progressive fold-shift inhibition assay/Schild analysis; assay type: cell-based
# [4] = Predicted hepatic clearance in human microsomes; assay type: in vitro ADME
# In vivo rat PK = conditions: plasma, iv, 0.2 mg/kg
# PAR4 [5] = biological target: T2, PAR4 (Homo sapiens, UniProt Q96RI0); conditions: literature antagonists; cited from earlier work
# T2 sequence (Q96RI0 48-385): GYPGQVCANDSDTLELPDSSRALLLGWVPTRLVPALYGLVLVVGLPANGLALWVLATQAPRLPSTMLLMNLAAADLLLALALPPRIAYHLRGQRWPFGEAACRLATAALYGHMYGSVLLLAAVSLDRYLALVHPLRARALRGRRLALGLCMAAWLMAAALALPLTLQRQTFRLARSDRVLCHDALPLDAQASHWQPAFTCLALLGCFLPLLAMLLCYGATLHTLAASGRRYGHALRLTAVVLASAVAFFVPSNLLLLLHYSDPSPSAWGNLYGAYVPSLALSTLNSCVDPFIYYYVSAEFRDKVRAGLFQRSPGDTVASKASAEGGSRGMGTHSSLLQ
# PAR4 [6] = conditions: read-out: EC50 for PAR4; thrombin as agonist; background statement; cited from earlier work
compound,measurement,setting,value
COc1ccc(-c2c(CO)n(C)c3ccc(C(F)(F)F)cc23)cn1 [9a],PAR4 activity (in words),PAR4 [1],devoid of PAR4 activity
COc1ccc(-c2c(CO)n(Cc3ccccc3)c3ccc(OC(F)(F)F)cc23)cn1 [9b],PAR4 activity (in words),PAR4 [1],devoid of PAR4 activity
COc1ccc(-c2c(CO)n(Cc3ccccc3F)c3ccc(OC(F)(F)F)cc23)cn1 [9c],PAR4 activity (in words),PAR4 [1],devoid of PAR4 activity
COc1cccc(Cn2c(CO)c(-c3ccc(OC)nc3)c3cc(C(F)(F)F)ccc32)c1 [9d],PAR4 activity (in words),PAR4 [1],devoid of PAR4 activity
COc1ccc(-c2c(CO)n(Cc3cccc(F)c3)c3ccc(OC(F)(F)F)cc23)cn1 [9e],PAR4 activity (in words),PAR4 [1],devoid of PAR4 activity
COc1ccc(-c2c(CO)n(Cc3cccc(Cl)c3)c3ccc(OC(F)(F)F)cc23)cn1 [9h],PAR4 activity (in words),PAR4 [1],devoid of PAR4 activity
OCc1c(-c2cncnc2)c2cc(OC(F)(F)F)ccc2n1Cc1ccc(F)cc1F [10b],PAR4 activity (in words),PAR4 [1],inactive
CSc1ncc(-c2c(CO)n(Cc3ccc(F)cc3F)c3ccc(OC(F)(F)F)cc23)cn1 [10c],IC50,PAR4 [1],1490 nM
COc1nn2cc(-c3c(CO)n(Cc4ccccc4Cl)c4ccc(OC(F)(F)F)cc34)nc2s1 [10h],rat CLHEP,[2],36.1 mL/min/kg
same,mode of PAR4 inhibition,PAR4 [3],complex mode of PAR4 inhibition; also recorded: mixed competitive/noncompetitive mechanism of action
same,human CLHEP,[4],1.1 mL/min/kg
same,clearance at 6 h,In vivo rat PK,45 mL/min/kg
COc1ccc(-c2c(CO)n(Cc3ccccc3Cl)c3cc(OC(F)(F)F)ccc23)cn1 [11d],IC50,PAR4 [1],930 nM
CCOC(=O)c1ccc(-c2nn(Cc3ccccc3)c3ccccc23)cc1 [compound 1],activity upon γ-thrombin activation (in words),PAR4 [5],lack of activity
Thrombin,EC50,PAR4 [6],~5 nM
